Experiments:
[1] = system: tumor Micro-Organospheres; assay: drug screen on Patient-Derived Micro-Organospheres formed from a patient tumor biopsy; assay type: cell-based; details: for percent survival of the Micro-Organospheres in the presence of the drug: Example 3, FIG. 23B, 23C
Description: The Patient-Derived Micro-Organospheres described herein may be used in a variety of different assays, and in particular may be used to determine drug formulation effects, including toxicity, on normal and/or abnormal (e.g., cancerous) tissue. For example, drug screening may include applying Micro-Organospheres into all or some wells of multi-well (e.g., a 96-well) plate. Alternatively custom plates may be used (e.g., a 10,000 micro-well array may be formed of a 100 × 100 wells). The Micro-Organospheres (e.g., gel droplets) may be applied into, or in some variations onto the multiple microwell arrays and incubated with culture medium. The Micro-Organospheres may be cultured over the course of 3-5 days. In some variations, on day 5, the wells (e.g., micro-reactors) may then be dosed with drug compounds, e.g., based on a set of FDA-approved anticancer drugs, to examine the effects of the drug panel. For example, the drugs texted may be based on the National Cancer Institute (Division of Cancer Treatment and Diagnosis (11)) screen, consisting of 147 agents intended to enable cancer research, drug discovery and combination drug studies. On Day 7, the Micro-Organospheres may be imaged via standard fluorescent microscopy and ranked based on drug response.
In this example, the screening assay may be automated. This may enable repeatable and automated workflow, which may increase the number of drugs screened from a few to hundreds. FIGS. 17A-17E illustrate one example of this workflow. In FIG. 17A, a tumor biopsy is taken and a plurality (e.g., >10,000) Micro-Organospheres are formed as described above (in FIG. 17A the junction region forming the Micro-Organospheres is illustrated).
The workflow shown in FIGS. 17A-17E may enable an integrated device to be used for growing, dosing and/or reviewing the Micro-Organospheres. […] Their response to drug treatments, such as IC-50, cytotoxicity, and growth curves, may be measured to identify effective therapeutics against the patient's tumor.

[2] = system: patient tumor; assay: actual response of the patient's tumor to treatment with the drug; assay type: in vivo
Description: In a similar set of experiments, Micro-Organospheres were generated from biopsy material (FIG. 23A), and a drug effect screen was performed using the resulting Micro-Organospheres. […] Thus, the Micro-Organospheres correlated strongly with patient response to the standard of care drugs. In this case, the patient endured six months of side effects and toxicities that may have been avoided by the predicted response from the Micro-Organospheres, indicating (within 7-10 days from the biopsy) that the tumor would not respond to these drugs.

[3] = system: traditional cell line; assay: traditional (2D) tumor cell line dosed with drug; assay type: cell-based; details: Example 2, FIG. 22A, all dose ranges examined
Description: As mentioned above, the Patient-Derived Micro-Organospheres and methods of using them to screen for drug compositions may be used to accurately predict the response of a patient tumor to one or more drug therapies. […] For example, in FIG. 22A-22D, the Micro-Organospheres, but not a cell line, was able to correlate with patient response.

With `CCc1c2c(nc3ccc(OC(=O)N4CCC(N5CCCCC5)CC4)cc13)-c1cc3c(c(=O)n1C2)COC(=O)[C@]3(O)CC` [Irinotecan] the “percent survival of the Micro-Organospheres in the presence of the drug” value [1] was “lack of effect”.

With `O=C1[O][Pt]2([NH][C@@H]3CCCC[C@H]3[NH]2)[O]C1=O` [Oxaliplatin] the “tumor response to treatment” value ([2]; Example 2, FIG. 22C (before) and 22D (post treatment)) was “responded to treatment”, the “patient response to treatment” value ([2]; Example 3, treated with both Oxalipalatin and Irinotecan, after 6 months of treatment) was “no response” and the “effect of the drug on the cell line” value [3] was “no effect”. The “cell survival of tumor Micro-Organospheres” value ([1]; Example 2, FIG. 22B) was “significant decreases in cell survival” and the “percent survival of the Micro-Organospheres in the presence of the drug” value [1] was “no change in the percent survival”.

— patent US11555180B2, “Methods and apparatuses for patient-derived micro-organospheres” (Xilis, Inc., priority 2019, dated 2023)
